Laboratory results reported in patent US12384753B2, “17-beta-hydroxysteroid dehydrogenase type 13 inhibitors and methods of use thereof” (Enanta Pharmaceuticals, Inc., priority 2021, dated 2025).

Biological target: Recombinant human HSD17B13 (Homo sapiens (Human), UniProt Q7Z5P4)
Assay: HSD17B13 rapid-fire mass spectrometry assay (RF/MS assay)
Assay type: biochemical
Conditions: inhibition of HSD17B13; LTB4 10 μM, NAD+ 0.5 mM, RT 3 h; IC50 ranges A-E
Summary of the method: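 Product 12-oxo-LTB4 and substrate LTB4 quantified by RapidFire triple-quad MS in negative mode, giving percent conversion. Reaction: 80 nM recombinant hHSD17B13, 10 μM LTB4, 0.5 mM NAD+, compound up to 100 μM, pH 7.5, RT, 3 h. Variable-slope fit gave IC50; run in duplicate.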

Recombinant human HSD17B13, sequence (Q7Z5P4 20-300): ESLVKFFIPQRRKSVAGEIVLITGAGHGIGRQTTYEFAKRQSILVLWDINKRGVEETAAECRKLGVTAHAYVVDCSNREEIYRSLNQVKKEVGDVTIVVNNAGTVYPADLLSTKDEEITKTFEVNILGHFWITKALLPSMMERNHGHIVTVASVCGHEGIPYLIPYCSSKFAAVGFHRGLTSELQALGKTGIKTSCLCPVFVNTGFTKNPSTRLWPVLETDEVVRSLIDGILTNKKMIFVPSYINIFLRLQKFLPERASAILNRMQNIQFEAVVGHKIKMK

Compound | IC50 [µM]
COc1cc(C(=O)O)ccc1NS(=O)(=O)N1Cc2nc(C3=CCC(c4ccccc4)CC3)sc2C1 (stereo not shown) [Example 359, 3-methoxy-4-((2-(1,2,3,6-tetrahydro-[1,1′-biphenyl]-4-yl)-5,6-dihydro-4H-pyrrolo[3,4-d]thiazole)-5-sulfonamido)benzoic acid] | < 0.1
COc1cc(C(=O)O)ccc1NS(=O)(=O)N1Cc2cccc(-c3ccc(C4CCCCC4)cc3)c2C1 [Example 360] | 1 to 100
COc1cc(C(=O)O)ccc1NS(=O)(=O)c1ccc(-c2ccc(C3CCCCC3)cc2)cc1 [Example 361] | 1 to 100
COc1cc(C(=O)O)ccc1NS(=O)(=O)N1Cc2nc(C3=CCC(C(C)(C)C)CC3)sc2C1 (stereo not shown) [Example 362] | 0.1 to 0.5
COc1cc(C(=O)O)ccc1NS(=O)(=O)N1Cc2ccc(-c3ccc(C4CCCCC4)cc3)cc2C1 [Example 364] | 0.5 to 1
COc1cc(C(=O)O)ccc1NS(=O)(=O)c1csc(-c2cccc(C3CCCCC3)c2)n1 [Example 366] | 0.1 to 0.5
COc1cc(C(=O)O)ccc1NS(=O)(=O)c1csc(-c2ccc(C3CCC(OC(F)(F)F)CC3)cc2)n1 (stereo not shown) [Example 367] | < 0.1
COc1cc(C(=O)O)ccc1NS(=O)(=O)c1csc(-c2ccc(C3CCCC(C)(C)C3)cc2)n1 (stereo not shown) [Example 368] | 0.1 to 0.5
COc1cc(C(=O)O)ccc1NS(=O)(=O)c1csc(-c2ccc(C3CCOCC3)cc2)n1 [Example 370] | 0.5 to 1
COc1cc(C(=O)O)ccc1NS(=O)(=O)c1csc(-c2ccc(C3CCC(F)(F)CC3)cc2)n1 [Example 371] | 0.1 to 0.5
COc1cc(C(=O)O)c(F)cc1NS(=O)(=O)c1csc(-c2ccc(C3CCC(C)(C)CC3)cc2)n1 [Example 372] | < 0.1
CCC[C@H]1CC[C@H](C2CC=C(c3nc(S(=O)(=O)Nc4ccc(C(=O)O)cc4OC)cs3)CC2)CC1 (stereo partly shown) [Example 373] | 0.1 to 0.5
COc1cc(C(=O)O)ccc1NS(=O)(=O)c1ccc(-c2ccc(C3CCCCC3)cc2)s1 [Example 374] | 0.1 to 0.5
COc1cc(C(=O)O)ccc1NS(=O)(=O)c1coc(-c2ccccc2)n1 [Example 375] | < 0.1
COc1cc(C(=O)O)ccc1NS(=O)(=O)N1Cc2nc(C3CCC(c4ccccc4)CC3)sc2C1 (stereo not shown) [Example 376, 3-methoxy-4-((2-(4-phenylcyclohexyl)-5,6-dihydro-4H-pyrrolo[3,4-d]thiazole)-5-sulfonamido)benzoic acid] | < 0.1
CCC[C@H]1CC[C@H](C2CC=C(c3ccc4c(c3)CN(S(=O)(=O)Nc3ccc(C(=O)O)cc3OC)C4)CC2)CC1 (stereo partly drawn) [Example 377, 3-methoxy-4-((5-((1S,1′s,4′S)-4′-propyl-[1,1′-bi(cyclohexan)]-3-en-4-yl)isoindoline)-2-sulfonamido)benzoic acid] | 1 to 100
COc1cc(C(=O)O)ccc1NS(=O)(=O)c1ccc(-c2cnc(-c3ccc(C4CCCCC4)cc3)s2)cc1 [Example 378, 4-((4-(2-(4-cyclohexylphenyl)thiazol-5-yl)phenyl)sulfonamido)-3-methoxybenzoic acid] | 1 to 100
CCC[C@H]1CC[C@H](C2CC=C(c3nc(S(=O)(=O)Nc4ccc(C(=O)O)cc4OC)cs3)CC2)CC1 (stereo partly shown) [Example 379] | 0.1 to 0.5
COc1cc(C(=O)O)ccc1NS(=O)(=O)c1csc(-c2ccc(C3CCC(OC)CC3)cc2)n1 (stereo not shown) [Example 380] | 0.1 to 0.5
CCC[C@H]1CC[C@H](C2CCC(c3nc(S(=O)(=O)Nc4ccc(C(=O)O)cc4OC)cs3)CC2)CC1 (stereo partly shown) [Example 381] | 0.1 to 0.5
COc1cc(C(=O)O)ccc1NS(=O)(=O)c1csc(-c2ccc(-c3ccc4c(c3)OCCO4)cc2)n1 [Example 382] | < 0.1
COc1cc(C(=O)O)ccc1NS(=O)(=O)c1csc(-c2ccc(-c3ccc(-c4ccc5c(c4)OCCO5)cc3)cc2)n1 [Example 383] | < 0.1
COc1cc(C(=O)O)ccc1NS(=O)(=O)N1Cc2nc(-c3ccc4c(c3)OCCO4)sc2C1 [Example 384] | 0.1 to 0.5
COc1cc(C(=O)O)ccc1NS(=O)(=O)c1cnc(-c2ccc(C3CCCCC3)cc2)s1 [Example 385] | < 0.1
COc1cc(C(=O)O)ccc1NS(=O)(=O)N1Cc2nc(-c3ccc4c(c3)CCCC4)sc2C1 [Example 386] | 0.1 to 0.5
O=C(O)c1ccc2cc(NS(=O)(=O)c3cnc(-c4ccc(F)cc4)s3)ccc2c1 [Example 387, 6-((2-(4-fluorophenyl)thiazole)-5-sulfonamido)-2-naphthoic acid] | 1 to 100
O=C(O)c1ccc2sc(NS(=O)(=O)c3cnc(-c4ccc(F)cc4)s3)nc2c1 [Example 388, 2-((2-(4-fluorophenyl)thiazole)-5-sulfonamido)benzo[d]thiazole-5-carboxylic acid] | 1 to 100
COc1cc(-c2ccc(C(=O)O)cc2)ccc1NS(=O)(=O)c1cnc(-c2ccc(F)cc2)s1 [Example 389, 4′-((2-(4-fluorophenyl)thiazole)-5-sulfonamido)-3′-methoxy-[1,1′-biphenyl]-4-carboxylic acid] | 1 to 100

Compound | IC50 [µM]
COc1cc(-c2ccc(C(=O)O)cc2OC)ccc1NS(=O)(=O)c1cnc(-c2ccc(F)cc2)s1 [Example 390] | 1 to 100
COc1cc(C(=O)O)ccc1NS(=O)(=O)c1csc(C#Cc2ccc(C(N)=O)c(OC(F)(F)F)c2)n1 [Example 391] | 0.1 to 0.5
CCOP(=O)(OCC)c1ccc(NS(=O)(=O)c2csc(C#Cc3cccc(OC(F)(F)F)c3)n2)c(OC)c1 [Example 392, diethyl (3-methoxy-4-((2-((3-(trifluoromethoxy)phenyl)ethynyl)thiazole)-4-sulfonamido)phenyl)phosphonate] | 1 to 100
COc1cc(C(=O)O)ccc1NS(=O)(=O)c1csc(C#Cc2ccc(F)c(OC(F)(F)F)c2)n1 [Example 393, 4-((2-((4-fluoro-3-(trifluoromethoxy)phenyl)ethynyl)thiazole)-4-sulfonamido)-3-methoxybenzoic acid] | < 0.1
COc1cc(C(=O)O)ccc1NS(=O)(=O)c1csc(C#Cc2ccc(C(=O)O)c(OC(F)(F)F)c2)n1 [Example 394] | 1 to 100
COc1cc(C(=O)O)ccc1NS(=O)(=O)c1csc(C#Cc2ccc(OC)c(OC(F)(F)F)c2)n1 [Example 395] | < 0.1
COc1cc(C(=O)O)ccc1NS(=O)(=O)c1csc(C#Cc2ccc(C#N)c(OC(F)(F)F)c2)n1 [Example 397] | < 0.1
COC(=O)c1ccc(C#Cc2nc(S(=O)(=O)Nc3ccc(C(=O)O)cc3OC)cs2)cc1OC(F)(F)F [Example 398] | < 0.1
COc1ccc(C#Cc2nc(S(=O)(=O)Nc3ccc(C(=O)O)cc3OC)cs2)c(C(C)C)c1 [Example 399, 4-((2-((2-isopropyl-4-methoxyphenyl)ethynyl)thiazole)-4-sulfonamido)-3-methoxybenzoic acid] | < 0.1
CCOP(=O)(O)c1ccc(NS(=O)(=O)c2csc(C#Cc3cccc(OC(F)(F)F)c3)n2)c(OC)c1 [Example 400, ethyl hydrogen (3-methoxy-4-((2-((3-(trifluoromethoxy)phenyl)ethynyl)thiazole)-4-sulfonamido)phenyl)phosphonate] | 1 to 100
COc1cc(CC(=O)O)ccc1NS(=O)(=O)c1csc(C#Cc2cccc(OC(F)(F)F)c2)n1 [Example 401, 2-(3-methoxy-4-((2-((3-(trifluoromethoxy)phenyl)ethynyl)thiazole)-4-sulfonamido)phenyl)acetic acid] | 1 to 100
COc1ccc(OC(F)(F)F)cc1C#Cc1nc(S(=O)(=O)Nc2ccc(C(=O)O)cc2OC)cs1 [Example 402] | 0.1 to 0.5
COc1cc(C(=O)O)ccc1NS(=O)(=O)c1csc(-c2cccc3cnn(C)c23)n1 [Example 403, 3-methoxy-4-((2-(1-methyl-1H-indazol-7-yl)thiazole)-4-sulfonamido)benzoic acid] | 0.5 to 1
COc1cc(C(=O)O)ccc1NS(=O)(=O)c1csc(-c2ccc(-c3ccc4ccccc4c3)cc2)n1 [Example 404] | < 0.1
COc1cc(C(=O)O)ccc1NS(=O)(=O)c1csc(-c2ccc3cnccc3c2)n1 [Example 405] | 0.1 to 0.5
C=C(COC)c1ccc(-c2nc(S(=O)(=O)Nc3ccc(C(=O)O)cc3OC)cs2)cc1 [Example 406, 3-methoxy-4-((2-(4-(3-methoxyprop-1-en-2-yl)phenyl)thiazole)-4-sulfonamido)benzoic acid] | 0.1 to 0.5
COc1cc(C(=O)O)ccc1NS(=O)(=O)c1cccc(-c2ccc(F)cc2)n1 [Example 411, 4-((6-(4-fluorophenyl)pyridine)-2-sulfonamido)-3-methoxybenzoic acid] | 0.5 to 1
COc1cc(C(=O)O)ccc1NS(=O)(=O)c1cccc(-c2ccc(C3CCCCC3)cc2)n1 [Example 412] | 0.1 to 0.5
COc1cc(C(=O)O)ccc1NS(=O)(=O)c1coc(-c2ccc(C)cc2)n1 [Example 413] | < 0.1
COc1cc(C(=O)O)ccc1NS(=O)(=O)c1coc(-c2ccc(C(F)(F)F)cc2)n1 [Example 414] | < 0.1
COc1ccc(-c2nc(S(=O)(=O)Nc3ccc(C(=O)O)cc3OC)co2)cc1 [Example 415] | < 0.1
COc1cc(C(=O)O)ccc1NS(=O)(=O)c1coc(-c2ccc(OC(F)(F)F)cc2)n1 [Example 416] | < 0.1
COc1cc(C(=O)O)ccc1NS(=O)(=O)c1coc(-c2ccc(C3CCCCC3)cc2)n1 [Example 419] | 0.1 to 0.5
COc1cc(C(=O)O)ccc1NS(=O)(=O)c1coc(-c2ccc(C3CCC(C)(C)CC3)cc2)n1 [Example 420] | 0.1 to 0.5
COc1cc(C(=O)O)ccc1NS(=O)(=O)c1csc(-c2ccc(C3CCCC(OC)C3)cc2)n1 (stereo not shown) [Example 426, 3-methoxy-4-((2-(4-(3-methoxycyclohexyl)phenyl)thiazole)-4-sulfonamido)benzoic acid] | 0.1 to 0.5
COc1cc(C(=O)O)ccc1NS(=O)(=O)c1cnc(-c2ccc(-c3ccc4c(c3)CCCC4)cc2)s1 [Example 427] | 0.1 to 0.5
COc1cc(C(=O)O)ccc1NS(=O)(=O)c1ccc(-c2ccc(C3CCC(C)(C)CC3)cc2)s1 [Example 428, 4-((5-(4-(4,4-dimethylcyclohexyl)phenyl)thiophene)-2-sulfonamido)-3-methoxybenzoic acid] | 0.1 to 0.5
